# Measurements taken from publication PMC8894198, “Biosynthetic Microcin J25 Exerts Strong Antibacterial, Anti-Inflammatory Activities, Low Cytotoxicity Without Increasing Drug-Resistance to Bacteria Target” (Frontiers in Immunology, 2022).
# Where a SMILES comes first, the peptide text is derived from it. Bridges are numbered along the chain shown (N, C = ends).
# Tests used:
# S. pullorum CVCC1791 = assay: MIC broth dilution, standard strain; assay type: cell-based, Salmonella pullorum; conditions: lowest MIC value, highly sensitive standard strain
# Protocol: The minimum inhibitory concentration (MIC) refers to the lowest concentration that can produce a significant hindrance to bacterial growth in a drug sensitivity test by adopting a broth dilution, with certain refinements and modifications based on the previous description ([25], [26]). In short, MccJ25 was dissolved in sterilized distilled water (SDW), serial 2-fold dilutions were prepared in Mueller-Hinton broth (MHB) through a 96-well microtiter plate, and the final concentration of MccJ25 was maintained in the range of 0.003125 to 256 μg/mL. Then, 2 μL of standard and clinically relevant overnight broth cultures of bacteria were inoculated into each well at a concentration of 5 × 10^6 CFU/mL. Microtiter plates were incubated at 37°C for one full day. Two groups were set up: positive (medium with inoculum) and negative (medium only) controls. The minimum bactericidal concentration (MBC) was measured in LB medium and refers to the first drug dilution value at which the initial bacterial concentration was reduced by 99.99%. The final analysis was determined by the results of three replicated and independent experiments. To further assess and clarify the antimicrobial activity of MccJ25, the protective ability against E. coli adhesion, live/dead assay, and killing curve were performed, the detailed methods were provided in Supplementary Materials .
# [1] = tested on: cocktail of MDR E. coli strains (521ZQE, AZ1, WWE921A-2) in C57BL/6 J mice; assay: Cocktail of MDR E. coli strains challenge in mice, MccJ25 pretreatment; assay type: in vivo
# From the text: 4-week-old C57BL/6 J female mice [initial body weight (BW) 15.23 ± 0.09] were purchased from Charles River Laboratories (Beijing, China) and raised under standard conditions. The producer was described in “Mice Model” section. […] Mice were maintained in a 3-d acclimatization period of time. Afterwards, 36 mice were randomly separated into three experimental groups based on BW: Uninfected group, control; Infected group; MccJ25+infected group, 12 mice per group in four cages, three mice/cage, total of 12 cages. Cocktail of MDR E. coli strains infection producers were performed as our previous described previously ([30]), experimental roadmap was shown in Figure 10A . A single of colony of MDR E. coli strains 521ZQE, AZ1, and WWE921A-2 were incubated in LB medium and grew to stationary stage (OD600 > 3), respectively. All mice were pretreated 0.2 ml PBS (control and infected group) or 0.2 ml PBS containing with 9.1 mg/kg/BW MccJ25 (MccJ25+infected group) for 3 d (once/day) prior to infection. Infected mice and MccJ25+infected mice received 0.2 ml sterile PBS containing 5 × 10^8 cocktail of MDR E. coli strains by oral gavage. The control group still received 0.2 ml of sterile PBS by gavage for 2 d. The concentration of biosynthetic MccJ25 was selected based on our previous study ([24]). After 3 d, mice were euthanized friendly, intestinal tissues, organs and serum were obtained. Fresh fecal, tissues, liver, and spleen were immediately placed on ice (1-2 h) and transported to the laboratory to count the specific bacteria in the laboratory. Serum was kept in -20°C and part of jejunum, colon, and spleen were stored in the -80°C for cytokines analysis.
# In the LPS-challenged mice experiment, lifespan of mice was monitored for 72 h. In the cocktail of MDR E. coli strains infection experiment, BW change, rectal temperature, diarrhea scores and fecal image, or survival rate were measured. For the diarrhea score evaluation producer was referred to previous study ([24]).
# The 0.1 g fresh jejunum, ileum, proximal colon, feces, liver, and spleen were collected and kept in sterile tubes containing 0.9 ml sterile physiological saline solution. Then, cryogenic lapping instrument (Shanghai Jingxin Industrial Development Co., Ltd., China) was applied to prepare the homogenate. 0.1 mL indicated samples prepared by ten-fold serial dilutions method were plated on indicated antibiotics MacConkey (OXOID, Hampshire, UK) and ChromAgar™ (OXOID, Hampshire, UK) plates. These plates were cultured overnight at 37°C to count colonies. Colony numbers were expressed as log 10 CFU/g of samples. All counts were performed in triplicate. Colonies were observed on the MacConkey agar and ChromAgar plates in the absence of indicated antibiotics, we considered that they were enterobacteria-like bacterium belonging to the class of family Enterobacteriaceae.
# Quantification of total bacteria, E. coli, Lactobacillus, and Bifidobacterium was done using PCR. In brief, total microbial DNA from cecal digesta was obtained. The total bacteria, Lactobacillus, Bifidobacterium, E. coli primers were synthesized in Invitrogen (Shanghai, China), which are listed in Table S1 . Standard curves of indicated bacteria were generated based on the construction of standard plasmids containing the 16S rRNA genes. The copy numbers of total bacteria, Lactobacillus, Bifidobacterium, and E. coli were calculated referring to standard curves as described previously ([30]).
# The concentrations of tumor necrosis factor-α (TNF-α), interleukin-6 (IL-6), IL-4, interferon (IFN)-γ, and nitric oxide (NO) in serum were measured. In addition, TNF-α and NO levels were also measured in the supernatant of RAW264.7 cells. ELISA was performed using a commercial ELISA kit (eBioscience, San Diego, USA). LPS levels in plasma were analyzed using the QCL-1000 kit (Xiamen, China) based on the manufacturer’s standards. […]
# [2] = 9.1 mg/kg/BW oral gavage for 3 d before infection
# [3] = ELISA, vs infected group, n = 6
# [4] = jejunum, colon and spleen, qPCR, vs infected mice
structure (smiles),measurement,setting,value
"CC[C@H](C)[C@H](NC(=O)CNC(=O)[C@@H](NC(=O)[C@H](Cc1ccccc1)NC(=O)[C@H](Cc1ccc(O)cc1)NC(=O)[C@@H]1CCC(=O)NCC(=O)NCC(=O)N[C@@H](C)C(=O)NCC(=O)N[C@@H](Cc2c[nH]cn2)C(=O)N[C@@H](C(C)C)C(=O)N2CCC[C@H]2C(=O)N1)C(C)C)C(=O)NCC(=O)N[C@H](C(=O)N1CCC[C@H]1C(=O)N[C@H](C(=O)N[C@@H](CO)C(=O)N[C@@H](Cc1ccccc1)C(=O)N[C@@H](Cc1ccc(O)cc1)C(=O)NCC(=O)O)[C@@H](C)CC)[C@@H](C)O [MccJ25, microcin J25] (GGAGHVPEYFVGIGTPISFYG-OH; lactam N-8 (inferred); C-terminus assumed)",MIC,S. pullorum CVCC1791,0.03 µg/mL
same,body weight,[1]; [2],increasing BW
same,diarrhea incidence,[1]; [2],decreasing diarrhea incidence
same,rectal temperature,[1]; [2],increasing
same,lifespan / survival,"[1]; 9.1 mg/kg/BW oral gavage once/day for 3 d before infection, n = 12",prolonging the lifespan
same,serum IL-4,[1]; [3],higher IL-4
same,"serum proinflammatory cytokines (TNF-α, IFN-γ, IL-6)",[1]; [3],lower proinflammatory cytokines
same,MDR E. coli colonization in liver and spleen,"[1]; d 3 after infection, n = 6",effectively reduced the degree of clinically source MDR E. coli colonization and expansion
same,IL-10 mRNA,[1]; [4],high anti-inflammatory cytokine IL-10
same,"mRNA of proinflammatory indicators (TNF-α, IL-6, IFN-γ, IL-1β, TLR4, NF-κB)",[1]; [4],lower proinflammatory indicators
same,"MDR E. coli in the intestines (jejunum, ileum, colon)","[1]; plate counts, d 3 after infection",significantly reduced the number and colonization
same,copy number of E. coli in cecal contents,[1]; real-time qPCR,sharply decreased the copy number
same,"copy numbers of Lactobacillus, Bifidobacterium in cecal contents",[1]; real-time qPCR,significantly increased the copy numbers
same,total bacteria copy numbers in cecal contents,[1]; real-time qPCR,no significant difference
same,bacterial load in the feces,"[1]; vs infected group, n = 6",markedly decreased the bacterial load
